Source: PubChem BioAssay (NCI)
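In this assay, cells in 96-well plates receive the compound at five concentrations for 48 hours. Endpoints are linearly interpolated between the surrounding concentrations. TGI: total growth inhibition.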

What was measured:
Experiment in all cases: NCI tumour cell line growth inhibition, 48 h
[1] = test system: M14 melanoma
[2] = test system: DMS 114 small cell lung
[3] = test system: SK-MEL-2 melanoma
[4] = test system: DLD-1 colon
[5] = test system: SF-539 CNS
[6] = test system: LOX IMVI melanoma
[7] = test system: HOP-18 NSCLC
[8] = test system: SNB-19 CNS
[9] = test system: CAKI-1 renal
[10] = test system: KM20L2 colon
[11] = test system: SNB-78 CNS
[12] = test system: OVCAR-5 ovarian

Row | Compound | TGI [1] | TGI [2] | TGI [3] | TGI [4] | TGI [5] | TGI [6] | TGI [7] | TGI [8] | TGI [9] | TGI [10] | TGI [11] | TGI [12]
1 | CCOCC(=O)N[C@H]1CCc2cc(OC)c(OC)c(OC)c2-c2ccc(OC)c(=O)cc21 | 20.2 µM | 0.0289 µM | > 15.8 µM | > 100 µM | 0.0328 µM | > 100 µM | > 100 µM | > 100 µM | 30.1 µM | 0.0375 µM | > 100 µM | > 100 µM
2 | CC(SC(=S)N1CCOCC1)c1cc2oc(=O)n(C)c2cc1Cl (stereo not drawn) | > 100 µM | > 100 µM | > 100 µM | > 100 µM | > 100 µM | > 100 µM | > 100 µM | > 100 µM | > 100 µM | > 100 µM | > 100 µM | > 100 µM
3 | C/C(O)=C(\N=O)C(=O)Nc1ccc(Cl)cc1Cl | > 100 µM | > 100 µM | > 100 µM | > 100 µM | > 100 µM | > 100 µM | > 100 µM | > 100 µM | > 100 µM | > 100 µM | > 100 µM | > 100 µM
4 | Cc1c(C(=O)C/C(=N/NC(=O)C[N+](C)(C)C)C(=O)Nc2ccc(Cl)cc2)[n+](=O)c2ccccc2n1O | > 100 µM | > 100 µM | > 100 µM | > 100 µM | > 100 µM | > 100 µM | > 100 µM | > 100 µM | > 100 µM | > 100 µM | > 100 µM | > 100 µM
